# In patent US20220204577A1, “Synthetic Peptides With Affinity for the Interleukin-10 Receptor, Pharmaceutical Composition and Use Thereof as Immunomodulators for Treating Autoimmune, Inflammatory or Allergic Diseases” (Universidade Federal de Uberlândia, priority 2019, published 2022):
# Columns and labels:
# [1] = test system: NFκB, IFN, or TLR4 signaling pathways; test: Reporter cell lines treated with peptides alone (no activating molecule); format: cell-based; settings: various concentrations, 12, 24 and 48 hours
# Method: To investigate the ability of the peptides to interfere with the NFkB, IFN, and TLR4 pathways, reporter cell lines were used. To analyze whether the isolated peptides (without activation molecules) could induce any type of activation, the isolated peptides were tested in the cell lines during 12, 24, and 48 hours of treatment. […] As an example, FIGS. 2A, 2B, and 2C show an analysis of NFkB expression after stimulation with the synthesized peptides described in this report. The cells were treated with the synthesized peptides Pep 1, Pep 2, Pep 3, and Pep 4 at various concentrations for 12, 24, and 48 hours, without activating molecules. Luciferase was then measured after 12 hours of treatment (FIG. 2A), 24 hours of treatment (FIG. 2B), and 48 hours of treatment (FIG. 2C). […] TNF-α (200 ng/mL) was used as a positive control.
# IFN signaling pathway = IFN signaling pathway (SEAP) in Jurkart-Dual reporter cells, peptide pre-treatment then IFN-α; format: cell-based; settings: peptide then IFN-α, 48 hours
# Method: Therefore, we cannot confirm whether they were able to affect the activation pathway (FIGS. 6A, B, and C) in the same or better way than the negative control (rIL-10). In the assays shown in FIGS. 5 (A, B, and C) and 6 (A, B, and C), IFN expression was analyzed in Jurkart-Dual reporter cells. In the assays shown in FIGS. 5 A, B, and C, cells were treated with peptides for 1 hour followed by the addition of IFN-α (104 EU/ml). Secreted Embryonic Alkaline Phosphatase (SEAP) production was measured after 12 hours of treatment (FIG. 5A), 24 hours of treatment (FIG. 5B), and 48 hours of treatment (FIG. 5C). In the assays shown in FIGS. 6 A, B, and C, cells were treated with IFN-α (104 EU/ml) for 1 hour, and then peptides were added. SEAP production was measured after (D) 12 hours of treatment (E) 24 hours of treatment, and (F) 48 hours of treatment. IFN-α (104 EU/mL) was used as a positive control and rIL-10 (0.4 ng/mL) as a negative control. * P<0.05.
# NFκB [2] = test: NFkB expression in Jurkart-Dual reporter cells, peptide pre-treatment then TNF-α; format: cell-based; settings: peptide then TNF-α
# Method: The assay was then performed using TNF-α as the activating molecule not only in the control, but after a pre-treatment with the synthesized peptides Pep 1, Pep 2, Pep 3, and Pep 4 at various concentrations. […] In the assays shown in FIGS. 3 A, B, and C, NFkB expression analysis was performed in Jurkart-Dual reporter cells. Cells were treated with peptides for 1 hour and TNF-α (200 ng/ml) was added. Luciferase was measured after 12 hours of treatment (FIG. 3A), 24 hours of treatment (FIG. 3B), and 48 hours of treatment (FIG. 3C).
# TLR4 signaling pathway [3] = test: TLR4 signaling pathway (SEAP) in HEK cells, peptide pre-treatment then LPS; format: cell-based; settings: 12 hours
# Method: (§1) HEK cells were used to investigate the ability of the peptides to reduce activation of the TLR4 signaling pathway after 12 hours of treatment.
# (§2) In the assay shown in FIG. 7A, the cells were treated with peptides for 1 hour, then LPS (100 ng/ml) was added. SEAP production was measured after 12 hours of treatment. In the assay shown in FIG. 7B, the cells were treated with LPS (100 ng/ml) for 1 hour, then the peptides were added. SEAP production was measured after 12 hours of treatment. LPS (100 ng/mL) was used as positive control and IL-10 (0.4 ng/mL) as negative control. * P<0.05; ** P<0.005; *** P<0.0005.
# NFκB [4] = test: NFkB expression in Jurkart-Dual reporter cells, TNF-α pre-treatment then peptides; format: cell-based
# Method: Then another assay was performed in which the cells were pretreated with TNF-α and the peptides were added later. […] In the assays shown in FIGS. 4 A, B, and C the analysis of NFkB expression was performed in Jurkart-Dual reporter cells. Cells were treated with TNF-α (200 ng/ml) for 1 hour and the peptides were added. Luciferase was measured after 12 hours of treatment (FIG. 4A), 24 hours of treatment (FIG. 4B), and 48 hours of treatment (FIG. 4C). TNF-α (200 ng/mL) was used as a positive control and rIL-10 (Recombinant Interleukin-10) (0.4 ng/mL) as a negative control. * P<0.05; ** P<0.005; *** P<0.0005.
# [5] = Dynamic Light Scattering (DLS), aggregation behavior in solution; format: physicochemical
# Method: The aggregation behavior of peptides Pep 1, Pep 2, Pep 3, and Pep 4 in solution was determined by Dynamic Light Scattering (DLS), as shown in FIG. 1E. All synthetic peptides were approximately 100% monomeric in solution. The measured hydrodynamic radius of the peptides was similar for Pep 1 (0.82 nm), Pep 2 ([…]), Pep 3 (0.79 nm), and Pep 4 (0.86 nm).
# TLR4 signaling pathway [6] = test: TLR4 signaling pathway (SEAP) in HEK cells, LPS pre-treatment then peptides; format: cell-based; settings: 12 hours
# Method: as §1, §2
# [7] = test system: Dendritic cells from mice bone marrow; test: Co-stimulatory molecules on bone marrow dendritic cells; format: cell-based; settings: CD11c+ dendritic cells; 1 μM; 24 hours
# Method: Dendritic cells from mice bone marrow were isolated to analyze the effect of synthesized peptides Pep 1, Pep 2, Pep 3, and Pep 4 at two concentrations, 1 μM, and 10 μM, on reducing cell activation. […] In the assays, CD11c+CD86 cells (FIG. 8A) and CD11c+CD40+ cells (FIG. 8B) were used after 24 hours of treatment. LPS (100 ng/mL) was used as a positive control. * P<0.05; ** P<0.005.
# [8] = peptide 1 hour, then LPS 100 ng/ml, 100 μM
# [9] = LPS 100 ng/ml 1 hour, then peptide, 100 μM
substance,measurement,setting,value
"Pep 3: synthetic peptide with affinity to the Interleukin-10 receptor, SEQ ID No 03, linear chain (HCFDTQRMEFRMPPGGGS; INTERLEUKIN-10 MIMETIC PEPTIDE)",NFkB expression (luciferase),[1],unable to elicit any response
same,activation of the IFN signaling pathway,IFN signaling pathway; 100 μM,activation of the pathway was reduced
same,NFκB activation,"NFκB [2]; 0.01 μM, 48 hours",reducing pathway activation
same,NFκB activation,"NFκB [2]; 0.05 μM, 12 hours",reducing pathway activation
same,TLR4 pathway activation,TLR4 signaling pathway [3]; [8],significantly reduced pathway activation
same,NFκB signaling,"NFκB [4]; TNF-α then peptide, 0.001 μM, 24 hours",less activation of the analyzed signaling pathway
same,NFκB signaling,"NFκB [4]; TNF-α then peptide, 0.005 μM, 12 hours",able to decrease NFκB signaling
same,NFκB signaling,"NFκB [4]; TNF-α then peptide, 0.005 μM, 24 hours",less activation of the analyzed signaling pathway
same,NFκB signaling,"NFκB [4]; TNF-α then peptide, 10 μM, 24 hours",less activation of the analyzed signaling pathway
same,hydrodynamic radius,[5],0.79 nm
same,activation of the TLR4 pathway,TLR4 signaling pathway [6]; [9],activation of the TLR4 pathway was more significantly reduced
same,activation of the TLR4 pathway,"TLR4 signaling pathway [6]; LPS then peptide, 0.1 μM",activation of the TLR4 pathway was more significantly reduced
same,activation of the TLR4 pathway,"TLR4 signaling pathway [6]; LPS then peptide, 0.5 μM",activation of the TLR4 pathway was more significantly reduced
same,activation of the TLR4 pathway,"TLR4 signaling pathway [6]; LPS then peptide, 10 μM",activation of the TLR4 pathway was more significantly reduced
"Pep 2: synthetic peptide with affinity to the Interleukin-10 receptor, SEQ ID No 02, without disulfide bridges (HASSAVIKSSSGGGS; INTERLEUKIN-10 MIMETIC PEPTIDE)",NFkB expression (luciferase),[1],unable to elicit any response
same,NFκB activation,"NFκB [2]; 0.1 μM, 12, 24 and 48 hours",decreased NFκB activation
same,NFκB activation,"NFκB [2]; 0.5 μM, 12, 24 and 48 hours",decreased NFκB activation
same,NFκB activation,"NFκB [2]; 1 μM, 12, 24 and 48 hours",decreased NFκB activation
same,NFκB activation,"NFκB [2]; 5 μM, 12, 24 and 48 hours",decreased NFκB activation
same,NFκB activation,"NFκB [2]; 10 μM, 12, 24 and 48 hours",decreased NFκB activation
same,NFκB activation,"NFκB [2]; 100 μM, 12, 24 and 48 hours",decreased NFκB activation
same,TLR4 pathway activation,TLR4 signaling pathway [3]; [8],significantly reduced pathway activation
same,TLR4 pathway activation,"TLR4 signaling pathway [3]; peptide then LPS, 0.1 μM",significantly reduced pathway activation
same,NFκB signaling,"NFκB [4]; TNF-α 200 ng/ml 1 hour, then peptide, 100 μM, 12 hours",able to decrease NFκB signaling
same,NFκB signaling,"NFκB [4]; TNF-α then peptide, 0.5 μM, 24 hours",less activation of the analyzed signaling pathway
same,NFκB signaling,"NFκB [4]; TNF-α then peptide, 1 μM, 12 hours",able to decrease NFκB signaling
same,NFκB signaling,"NFκB [4]; TNF-α then peptide, 1 μM, 24 hours",less activation of the analyzed signaling pathway
same,NFκB signaling,"NFκB [4]; TNF-α then peptide, 5 μM, 12 hours",able to decrease NFκB signaling
same,NFκB signaling,"NFκB [4]; TNF-α then peptide, 5 μM, 24 hours",less activation of the analyzed signaling pathway
same,NFκB signaling,"NFκB [4]; TNF-α then peptide, 10 μM, 12 hours",able to decrease NFκB signaling
same,NFκB signaling,"NFκB [4]; TNF-α then peptide, 100 μM, 24 hours",less activation of the analyzed signaling pathway
same,activation of the TLR4 pathway,TLR4 signaling pathway [6]; [9],activation of the TLR4 pathway was more significantly reduced
same,activation of the TLR4 pathway,"TLR4 signaling pathway [6]; LPS then peptide, 0.01 μM",activation of the TLR4 pathway was more significantly reduced
same,activation of the TLR4 pathway,"TLR4 signaling pathway [6]; LPS then peptide, 0.05 μM",activation of the TLR4 pathway was more significantly reduced
same,activation of the TLR4 pathway,"TLR4 signaling pathway [6]; LPS then peptide, 0.1 μM",activation of the TLR4 pathway was more significantly reduced
same,activation of the TLR4 pathway,"TLR4 signaling pathway [6]; LPS then peptide, 0.5 μM",activation of the TLR4 pathway was more significantly reduced
same,activation of the TLR4 pathway,"TLR4 signaling pathway [6]; LPS then peptide, 1 μM",activation of the TLR4 pathway was more significantly reduced
same,expression of CD40+,[7],decreased the expression of CD86+ and CD40+
same,expression of CD86+,[7],decreased the expression of CD86+ and CD40+
"Pep 4: synthetic peptide with affinity to the Interleukin-10 receptor, SEQ ID No 04, linear chain (HCMTGSRATFPSAPGGGS; INTERLEUKIN-10 MIMETIC PEPTIDE)",NFkB expression (luciferase),[1],unable to elicit any response
same,activation of the IFN signaling pathway,IFN signaling pathway; 0.05 μM,activation of the pathway was reduced
same,activation of the IFN signaling pathway,IFN signaling pathway; 100 μM,activation of the pathway was reduced
same,NFκB activation,"NFκB [2]; 0.005 μM, 48 hours",reduced pathway activation
same,NFκB activation,"NFκB [2]; 0.01 μM, 48 hours",reduced pathway activation
same,NFκB activation,"NFκB [2]; 0.05 μM, 48 hours",reduced pathway activation
same,TLR4 pathway activation,TLR4 signaling pathway [3]; [8],significantly reduced pathway activation
same,TLR4 pathway activation,"TLR4 signaling pathway [3]; peptide then LPS, 1 μM",significantly reduced pathway activation
same,TLR4 pathway activation,"TLR4 signaling pathway [3]; peptide then LPS, 5 μM",significantly reduced pathway activation
same,TLR4 pathway activation,"TLR4 signaling pathway [3]; peptide then LPS, 10 μM",significantly reduced pathway activation
same,NFκB signaling,"NFκB [4]; TNF-α then peptide, 0.5 μM, 12 hours",able to decrease NFκB signaling
same,hydrodynamic radius,[5],0.86 nm
same,activation of the TLR4 pathway,TLR4 signaling pathway [6]; [9],activation of the TLR4 pathway was more significantly reduced
same,activation of the TLR4 pathway,"TLR4 signaling pathway [6]; LPS then peptide, 0.5 μM",activation of the TLR4 pathway was more significantly reduced
same,activation of the TLR4 pathway,"TLR4 signaling pathway [6]; LPS then peptide, 1 μM",activation of the TLR4 pathway was more significantly reduced
same,activation of the TLR4 pathway,"TLR4 signaling pathway [6]; LPS then peptide, 5 μM",activation of the TLR4 pathway was more significantly reduced
same,activation of the TLR4 pathway,"TLR4 signaling pathway [6]; LPS then peptide, 10 μM",activation of the TLR4 pathway was more significantly reduced
